In the supplement of paper PMC10307832:

How the values were obtained:
Assay in all cases: relative viability (nuclei count vs DMSO), 5 days (fraction); higher = more cells survive
NCI-H596 = system: NCI-H596
Method in brief: (§1)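 Medians of duplicate plates are given as relative viability. That measure is the nuclei count in treated wells divided by the count in vehicle wells. Counts were taken on 4× images of lung cancer cell lines in 1536-well plates, 5 days after pin-tool dosing the day after seeding with one drug alone or a fixed anchor-drug dose plus five library-drug doses (not always all listed) in √10 steps.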

NCI-H661 = system: NCI-H661
Method in brief: as §1

NCI-H727 = system: NCI-H727
Method in brief: as §1

NCI-H2342 = system: NCI-H2342
Method in brief: as §1

ChaGo-K-1 = system: ChaGo-K-1
Method in brief: as §1

CAL-12T = system: CAL-12T
Method in brief: as §1

NCI-H1355 = system: NCI-H1355
Method in brief: as §1

SW 1573 = system: SW 1573
Method in brief: as §1

NCI-H460 = system: NCI-H460
Method in brief: as §1

PC-3 [JPC-3] = system: PC-3 [JPC-3]
Method in brief: as §1

NCI-H23 = system: NCI-H23
Method in brief: as §1

NCI-H2009 = system: NCI-H2009
Method in brief: as §1

NCI-H2126 = system: NCI-H2126
Method in brief: as §1

ABC-1 = system: ABC-1
Method in brief: as §1

COR-L23 = system: COR-L23
Method in brief: as §1

201T = system: 201T
Method in brief: as §1

HOP-62 = system: HOP-62
Method in brief: as §1

NCI-H1666 = system: NCI-H1666
Method in brief: as §1

NCI-H1651 = system: NCI-H1651
Method in brief: as §1

LC-2-ad = system: LC-2-ad
Method in brief: as §1

NCI-H322M = system: NCI-H322M
Method in brief: as §1

NCI-H1944 = system: NCI-H1944
Method in brief: as §1

NCI-H2087 = system: NCI-H2087
Method in brief: as §1

Structure (SMILES): Oc1nc(-c2ccc(C(F)(F)F)cc2)nc2c1CSCC2 [XAV939] + O=C(CCCCCCC(=O)Nc1ccccc1)NO [Vorinostat] (partner 1 µM)
- relative viability (NCI-H596; first compound 0.08 µM): 0.642
- relative viability (NCI-H596; first compound 0.253 µM): 0.623
- relative viability (NCI-H596; first compound 0.8 µM): 0.587
- relative viability (NCI-H596; first compound 2.53 µM): 0.543
- relative viability (NCI-H661; first compound 0.08 µM): 0.807
- relative viability (NCI-H661; first compound 0.253 µM): 0.674
- relative viability (NCI-H661; first compound 0.8 µM): 0.777
- relative viability (NCI-H661; first compound 2.53 µM): 0.777
- relative viability (NCI-H727; first compound 0.08 µM): 1.25
- relative viability (NCI-H727; first compound 0.8 µM): 1
- relative viability (NCI-H727; first compound 2.53 µM): 1.02
- relative viability (NCI-H2342; first compound 0.08 µM): 0.791
- relative viability (NCI-H2342; first compound 0.253 µM): 0.705
- relative viability (NCI-H2342; first compound 0.8 µM): 0.768
- relative viability (NCI-H2342; first compound 2.53 µM): 0.533
- relative viability (ChaGo-K-1; first compound 0.08 µM): 0.751
- relative viability (ChaGo-K-1; first compound 0.253 µM): 0.707
- relative viability (ChaGo-K-1; first compound 0.8 µM): 0.747
- relative viability (ChaGo-K-1; first compound 2.53 µM): 0.643
- relative viability (CAL-12T; first compound 0.08 µM): 0.984
- relative viability (CAL-12T; first compound 0.253 µM): 0.483
- relative viability (CAL-12T; first compound 0.8 µM): 0.823
- relative viability (CAL-12T; first compound 2.53 µM): 0.381
- relative viability (NCI-H1355; first compound 0.08 µM): 0.688
- relative viability (NCI-H1355; first compound 0.253 µM): 0.546
- relative viability (NCI-H1355; first compound 0.8 µM): 0.552
- relative viability (NCI-H1355; first compound 2.53 µM): 0.445
- relative viability (SW 1573; first compound 0.08 µM): 0.922
- relative viability (SW 1573; first compound 0.253 µM): 0.8
- relative viability (SW 1573; first compound 0.8 µM): 0.542
- relative viability (SW 1573; first compound 2.53 µM): 0.373
- relative viability (NCI-H460; first compound 0.08 µM): 0.943
- relative viability (NCI-H460; first compound 0.253 µM): 0.46
- relative viability (NCI-H460; first compound 0.8 µM): 0.649
- relative viability (NCI-H460; first compound 2.53 µM): 0.433
- relative viability (PC-3 [JPC-3]; first compound 0.253 µM): 0.76
- relative viability (PC-3 [JPC-3]; first compound 0.8 µM): 0.769
- relative viability (PC-3 [JPC-3]; first compound 2.53 µM): 0.816
- relative viability (NCI-H23; first compound 0.08 µM): 0.684
- relative viability (NCI-H23; first compound 0.8 µM): 0.66
- relative viability (NCI-H23; first compound 2.53 µM): 0.415
- relative viability (NCI-H2009; first compound 0.08 µM): 0.754
- relative viability (NCI-H2009; first compound 0.253 µM): 0.709
- relative viability (NCI-H2009; first compound 0.8 µM): 0.743
- relative viability (NCI-H2009; first compound 2.53 µM): 0.536
- relative viability (NCI-H2126; first compound 0.08 µM): 0.835
- relative viability (NCI-H2126; first compound 0.253 µM): 0.587
- relative viability (NCI-H2126; first compound 0.8 µM): 0.733
- relative viability (NCI-H2126; first compound 2.53 µM): 0.564
- relative viability (ABC-1; first compound 0.253 µM): 0.767
- relative viability (ABC-1; first compound 0.8 µM): 1.12
- relative viability (ABC-1; first compound 2.53 µM): 0.568
- relative viability (COR-L23; first compound 0.08 µM): 0.443
- relative viability (COR-L23; first compound 0.253 µM): 0.472
- relative viability (COR-L23; first compound 0.8 µM): 0.483
- relative viability (COR-L23; first compound 2.53 µM): 0.39
- relative viability (201T; first compound 0.08 µM): 1.07
- relative viability (201T; first compound 0.253 µM): 0.794
- relative viability (201T; first compound 0.8 µM): 0.832
- relative viability (201T; first compound 2.53 µM): 0.779
- relative viability (HOP-62; first compound 0.08 µM): 0.888
- relative viability (HOP-62; first compound 0.253 µM): 0.525
- relative viability (HOP-62; first compound 0.8 µM): 0.501
- relative viability (HOP-62; first compound 2.53 µM): 0.311
- relative viability (NCI-H1666; first compound 0.08 µM): 0.978
- relative viability (NCI-H1666; first compound 0.253 µM): 0.889
- relative viability (NCI-H1666; first compound 0.8 µM): 0.906
- relative viability (NCI-H1666; first compound 2.53 µM): 1.15
- relative viability (NCI-H1651; first compound 0.08 µM): 0.546
- relative viability (NCI-H1651; first compound 0.253 µM): 0.529
- relative viability (NCI-H1651; first compound 0.8 µM): 0.555
- relative viability (NCI-H1651; first compound 2.53 µM): 0.512
- relative viability (LC-2-ad; first compound 0.08 µM): 0.735
- relative viability (LC-2-ad; first compound 0.253 µM): 0.689
- relative viability (LC-2-ad; first compound 0.8 µM): 0.705
- relative viability (LC-2-ad; first compound 2.53 µM): 0.567
- relative viability (NCI-H322M; first compound 0.08 µM): 1.1
- relative viability (NCI-H322M; first compound 0.253 µM): 0.805
- relative viability (NCI-H322M; first compound 0.8 µM): 0.826
- relative viability (NCI-H322M; first compound 2.53 µM): 0.622
- relative viability (NCI-H1944; first compound 0.08 µM): 0.55
- relative viability (NCI-H1944; first compound 0.253 µM): 0.625
- relative viability (NCI-H1944; first compound 0.8 µM): 0.508
- relative viability (NCI-H1944; first compound 2.53 µM): 0.354
- relative viability (NCI-H2087; first compound 0.08 µM): 0.978
- relative viability (NCI-H2087; first compound 0.253 µM): 0.561
- relative viability (NCI-H2087; first compound 0.8 µM): 0.654
- relative viability (NCI-H2087; first compound 2.53 µM): 0.594
